Reference: ChEMBL document CHEMBL5042492, “Noncovalent CDK12/13 dual inhibitors-based PROTACs degrade CDK12-Cyclin K complex and induce synthetic lethality with PARP inhibitor” (Eur J Med Chem, 2022)
pIC50: −log10 of the molar value. One block for each molecule: values may come before it. Activity calls are given as the source filed them. The rule behind the calls is not given here.

Key:
[1] = target: T1, Protein cereblon/Cyclin-K/Cyclin-dependent kinase 12 (Homo sapiens, UniProt O75909+Q9NYV4+Q96SW2); assay: Protac activity at human CRBN/CDK12/CycK in human MDA-MB-231 cells assessed as degradation of CDK12 at 3 uM measured after 24 hrs by Western blotting assay; type: cell-based
[2] = target: T1, Protein cereblon/Cyclin-K/Cyclin-dependent kinase 12; assay: Protac activity at human CRBN/CDK12/CycK in human Bel-7402 cells assessed as degradation of CDK12 at 3 uM measured after 24 hrs by Western blotting assay; type: cell-based
CDK12/Cyclin K = CDK12/Cyclin K (Homo sapiens, UniProt Q9NYV4); assay: Inhibition of human CDK12 (696 to 1082 residues) /cyclinK (1 to 300 residues) using ac-YSPTSPpSYSPTSFpS-YSPTSPpSY-[PEG2]-RR-amid peptide as substrate in presence of ATP measured after 2 hrs by ADP-Glo kinase assay; type: protein-complex assay
[3] = target: T1, Protein cereblon/Cyclin-K/Cyclin-dependent kinase 12; assay: Protac activity at human CRBN/CDK12/CycK in human Bel-7402 (CRBN/KO) cells assessed as degradation of CDK12 measured after 24 hrs by Western blotting assay; type: cell-based
[4] = target: T2, CDK12/Cyclin K (Homo sapiens) (UniProt O75909+Q9NYV4); assay: Protac activity at human CDK12/CycK in human MDA-MB-231 (CRBN/WT) cells assessed as degradation of CDK12 measured after 24 hrs by Western blotting assay; type: cell-based
[5] = target: T1, Protein cereblon/Cyclin-K/Cyclin-dependent kinase 12; assay: Protac activity at human CRBN/CDK12/CycK in human MDA-MB-231(CRBN/KO) cells assessed as degradation of CDK12 measured after 24 hrs by Western blotting assay; type: cell-based
[6] = target: T2, CDK12/Cyclin K (Homo sapiens); assay: Protac activity at human CDK12/CycK in human Bel-7402 (CRBN/WT) cells assessed as degradation of CDK12 measured after 24 hrs by Western blotting assay; type: cell-based
[7] = target: T1, Protein cereblon/Cyclin-K/Cyclin-dependent kinase 12; assay: Protac activity at human CRBN/CDK12/CycK in human Bel-7402 cells assessed as downregulation of Mcl-1 level upto 30 uM measured after 24 hrs by Western blotting assay; type: cell-based; conditions: dose microM <=30, time 24.0 hrs
[8] = target: T1, Protein cereblon/Cyclin-K/Cyclin-dependent kinase 12; assay: Protac activity at human CRBN/CDK12/CycK in human MDA-MB-231 cells assessed as downregulation of Mcl-1 level upto 30 uM measured after 24 hrs by Western blotting assay; type: cell-based; conditions: dose microM <=30, time 24.0 hrs
[9] = target: T1, Protein cereblon/Cyclin-K/Cyclin-dependent kinase 12; assay: Protac activity at human CRBN/CDK12/CycK in human MDA-MB-231 cells assessed as RNAP2 CTD Ser2 phosphorylation level at 0.1 to 30 uM measured after 24 hrs by Western blotting assay; type: cell-based; conditions: dose 0.1-30 µM
[10] = target: T1, Protein cereblon/Cyclin-K/Cyclin-dependent kinase 12; assay: Protac activity at human CRBN/CDK12/CycK in human Bel-7402 cells assessed as RNAP2 CTD Ser2 phosphorylation level at 0.1 to 30 uM measured after 24 hrs by Western blotting assay; type: cell-based; conditions: dose 0.1-30 µM
[11] = target: Cyclin-dependent kinase 13 (Homo sapiens) (UniProt Q14004); assay: Inhibition of human N-terminal FLAG-tagged CDK13 (600 to 1100 residues) using GST-tagged CTD as substrate at 3 uM for 2 hrs by western blot analysis
Chain of Cyclin-dependent kinase 13 (Homo sapiens) (Q14004 whole entry, looked up, the tested form may be a part): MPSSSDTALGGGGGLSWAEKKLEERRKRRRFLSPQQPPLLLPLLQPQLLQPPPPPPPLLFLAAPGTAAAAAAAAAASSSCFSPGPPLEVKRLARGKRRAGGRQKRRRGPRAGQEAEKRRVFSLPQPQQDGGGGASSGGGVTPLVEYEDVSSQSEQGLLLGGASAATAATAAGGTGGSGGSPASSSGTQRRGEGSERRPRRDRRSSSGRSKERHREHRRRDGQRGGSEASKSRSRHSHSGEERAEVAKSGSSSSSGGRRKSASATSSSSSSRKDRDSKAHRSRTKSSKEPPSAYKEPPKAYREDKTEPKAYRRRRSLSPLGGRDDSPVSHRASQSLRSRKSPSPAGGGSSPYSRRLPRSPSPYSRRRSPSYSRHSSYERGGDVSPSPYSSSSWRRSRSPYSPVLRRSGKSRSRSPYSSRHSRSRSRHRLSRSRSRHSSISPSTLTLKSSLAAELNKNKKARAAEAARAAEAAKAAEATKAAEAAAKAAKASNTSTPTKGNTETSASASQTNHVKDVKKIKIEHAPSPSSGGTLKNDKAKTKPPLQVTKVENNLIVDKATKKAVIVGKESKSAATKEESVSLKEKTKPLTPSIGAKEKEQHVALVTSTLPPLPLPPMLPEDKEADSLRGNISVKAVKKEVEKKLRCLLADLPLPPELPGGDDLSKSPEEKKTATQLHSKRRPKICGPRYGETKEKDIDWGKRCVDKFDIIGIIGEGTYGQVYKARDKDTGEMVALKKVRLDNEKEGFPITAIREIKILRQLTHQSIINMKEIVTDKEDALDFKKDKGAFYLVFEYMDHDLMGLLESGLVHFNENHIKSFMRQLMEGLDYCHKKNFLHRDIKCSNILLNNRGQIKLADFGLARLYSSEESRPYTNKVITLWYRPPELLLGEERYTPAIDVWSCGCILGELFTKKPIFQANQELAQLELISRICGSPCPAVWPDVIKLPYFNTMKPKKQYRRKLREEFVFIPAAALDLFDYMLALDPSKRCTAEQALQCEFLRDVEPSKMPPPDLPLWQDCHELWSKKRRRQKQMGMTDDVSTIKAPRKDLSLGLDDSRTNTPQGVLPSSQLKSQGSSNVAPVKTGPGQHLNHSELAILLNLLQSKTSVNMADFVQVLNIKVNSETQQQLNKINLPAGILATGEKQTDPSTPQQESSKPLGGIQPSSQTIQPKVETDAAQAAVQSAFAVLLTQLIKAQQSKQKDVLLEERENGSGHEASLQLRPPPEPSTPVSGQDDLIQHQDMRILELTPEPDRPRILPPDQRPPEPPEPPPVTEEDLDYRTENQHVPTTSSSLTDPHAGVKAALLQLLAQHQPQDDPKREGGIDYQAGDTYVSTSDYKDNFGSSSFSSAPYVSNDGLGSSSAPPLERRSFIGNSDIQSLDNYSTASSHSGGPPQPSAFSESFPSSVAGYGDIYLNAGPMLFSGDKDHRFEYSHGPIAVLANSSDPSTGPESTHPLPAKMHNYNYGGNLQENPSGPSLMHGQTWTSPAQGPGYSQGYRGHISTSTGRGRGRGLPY

T1 sequence (O75909 whole entry, looked up): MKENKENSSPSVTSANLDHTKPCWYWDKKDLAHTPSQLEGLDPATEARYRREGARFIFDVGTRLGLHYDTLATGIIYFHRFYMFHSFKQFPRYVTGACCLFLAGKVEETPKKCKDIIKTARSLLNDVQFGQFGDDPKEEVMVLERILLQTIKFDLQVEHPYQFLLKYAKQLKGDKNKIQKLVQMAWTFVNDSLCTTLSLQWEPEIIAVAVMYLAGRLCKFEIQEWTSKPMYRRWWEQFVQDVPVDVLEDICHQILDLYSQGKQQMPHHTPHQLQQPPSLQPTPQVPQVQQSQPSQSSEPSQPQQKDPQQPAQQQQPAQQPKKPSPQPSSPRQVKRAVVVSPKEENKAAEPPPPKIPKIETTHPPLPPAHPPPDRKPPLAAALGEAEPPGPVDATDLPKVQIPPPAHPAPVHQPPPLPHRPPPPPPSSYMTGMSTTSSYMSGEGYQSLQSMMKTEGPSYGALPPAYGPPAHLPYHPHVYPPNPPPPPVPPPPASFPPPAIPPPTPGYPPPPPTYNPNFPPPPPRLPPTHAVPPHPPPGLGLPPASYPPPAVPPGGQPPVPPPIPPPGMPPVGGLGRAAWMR
T1 sequence (Q96SW2 whole entry, looked up): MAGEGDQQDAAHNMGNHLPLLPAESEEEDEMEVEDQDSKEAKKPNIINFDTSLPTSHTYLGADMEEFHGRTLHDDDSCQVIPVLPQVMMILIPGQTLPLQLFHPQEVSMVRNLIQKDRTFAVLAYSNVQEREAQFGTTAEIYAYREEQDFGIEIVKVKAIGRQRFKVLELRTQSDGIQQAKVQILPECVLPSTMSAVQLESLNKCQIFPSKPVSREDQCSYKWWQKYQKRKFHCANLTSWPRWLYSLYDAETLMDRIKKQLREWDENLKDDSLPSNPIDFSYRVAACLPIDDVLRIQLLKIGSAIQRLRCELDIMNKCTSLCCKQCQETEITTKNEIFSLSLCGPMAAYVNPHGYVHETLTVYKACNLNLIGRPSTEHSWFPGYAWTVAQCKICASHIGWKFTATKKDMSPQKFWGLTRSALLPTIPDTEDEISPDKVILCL
T1 sequence (Q9NYV4 whole entry, looked up): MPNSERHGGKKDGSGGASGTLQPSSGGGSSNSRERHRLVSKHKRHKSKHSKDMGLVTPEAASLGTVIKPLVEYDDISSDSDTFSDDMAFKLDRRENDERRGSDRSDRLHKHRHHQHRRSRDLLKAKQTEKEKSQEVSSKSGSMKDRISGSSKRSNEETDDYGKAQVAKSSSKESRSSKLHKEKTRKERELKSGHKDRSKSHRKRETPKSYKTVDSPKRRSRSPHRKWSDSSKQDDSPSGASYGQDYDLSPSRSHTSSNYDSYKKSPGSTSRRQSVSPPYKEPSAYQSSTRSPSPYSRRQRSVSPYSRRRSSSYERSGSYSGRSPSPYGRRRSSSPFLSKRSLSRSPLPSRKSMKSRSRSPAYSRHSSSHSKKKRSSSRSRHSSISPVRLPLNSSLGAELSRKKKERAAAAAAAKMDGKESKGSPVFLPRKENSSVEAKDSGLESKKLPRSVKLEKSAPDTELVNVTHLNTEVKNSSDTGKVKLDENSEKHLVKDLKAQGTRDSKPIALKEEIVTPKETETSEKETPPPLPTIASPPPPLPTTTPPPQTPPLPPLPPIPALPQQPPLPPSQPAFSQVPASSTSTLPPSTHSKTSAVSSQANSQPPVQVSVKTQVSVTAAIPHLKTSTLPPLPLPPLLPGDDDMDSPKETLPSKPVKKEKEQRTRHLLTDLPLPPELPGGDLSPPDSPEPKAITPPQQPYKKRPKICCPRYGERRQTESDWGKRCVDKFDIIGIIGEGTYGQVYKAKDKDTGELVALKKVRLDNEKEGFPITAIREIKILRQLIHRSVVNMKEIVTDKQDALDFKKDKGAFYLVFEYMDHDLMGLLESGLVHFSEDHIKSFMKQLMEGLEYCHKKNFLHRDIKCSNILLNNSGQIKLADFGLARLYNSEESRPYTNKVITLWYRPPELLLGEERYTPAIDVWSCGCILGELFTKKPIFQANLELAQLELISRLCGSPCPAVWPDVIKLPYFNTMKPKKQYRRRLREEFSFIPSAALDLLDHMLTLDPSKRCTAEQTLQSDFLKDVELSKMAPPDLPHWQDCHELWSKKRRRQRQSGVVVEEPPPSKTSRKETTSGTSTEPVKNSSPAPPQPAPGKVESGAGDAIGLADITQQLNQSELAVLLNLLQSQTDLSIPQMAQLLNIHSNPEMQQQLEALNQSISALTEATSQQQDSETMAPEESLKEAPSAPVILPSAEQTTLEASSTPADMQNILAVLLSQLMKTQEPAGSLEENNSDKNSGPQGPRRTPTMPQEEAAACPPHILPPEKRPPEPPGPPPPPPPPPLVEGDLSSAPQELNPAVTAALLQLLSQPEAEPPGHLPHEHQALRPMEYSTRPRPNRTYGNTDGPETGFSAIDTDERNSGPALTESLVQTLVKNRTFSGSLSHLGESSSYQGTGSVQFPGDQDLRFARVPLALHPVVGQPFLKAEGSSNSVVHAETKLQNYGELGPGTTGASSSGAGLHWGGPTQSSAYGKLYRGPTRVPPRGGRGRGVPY
Chain of CDK12/Cyclin K (O75909 whole entry, the tested form may be a part): as the sequence (O75909 whole entry, looked up) above
Chain of CDK12/Cyclin K (Q9NYV4 whole entry, the tested form may be a part): as the sequence (Q9NYV4 whole entry, looked up) above
T2 sequence (O75909 whole entry, looked up): as the sequence (O75909 whole entry, looked up) above
T2 sequence (Q9NYV4 whole entry, looked up): as the sequence (Q9NYV4 whole entry, looked up) above

SMILES: CN(C)C/C=C/C(=O)Nc1ccc(C(=O)N2CCC[C@@H](Nc3ncc(Cl)c(-c4c[nH]c5ccccc45)n3)C2)cc1
Activity [7]: Active
Activity [8]: Active
Activity [9]: Active
Activity [10]: Active

SMILES: CC(C)n1cnc2c(NCc3nc4cc(F)c(NCCCCCCCCCCCCNC(=O)COc5cccc6c5C(=O)N(C5CCC(=O)NC5=O)C6=O)cc4[nH]3)nc(N3CCOCC3)nc21 (stereo unspecified)
Activity [1]: Active
inhibition [11]: inactive
Activity [2]: Active
pIC50 (CDK12/Cyclin K): 5.70

The next lines start with the values.

Activity [1]: Active
Activity [2]: Active
pIC50 (CDK12/Cyclin K): 6.92
SMILES: CC(C)n1cnc2c(NCc3nc4cc(F)c(NCCCCCCNC(=O)COc5cccc6c5C(=O)N(C5CCC(=O)NC5=O)C6=O)cc4[nH]3)nc(N3CCOCC3)nc21 (stereo unspecified)

Activity [3]: Active
Activity [4]: Active
Activity [5]: Active
Activity [6]: Active
SMILES: Cn1cc(-n2cnc3c(NCc4nc5cc(Cl)c(Cl)cc5[nH]4)nc(N4CCOCC4)nc32)cn1

pIC50 (CDK12/Cyclin K): 6.63
SMILES: COCCOCCOc1cc2[nH]c(CNc3nc(N4CCOCC4)nc4c3ncn4C(C)C)nc2cc1F
